Laboratory results published in PubChem BioAssay (NCI).
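Assay format: 96-well plates, 48-hour exposure. At the TGI there is no net growth.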

How the values were obtained:
Assay in all cases: DTP human tumour cell line panel, 48 h
COLO 205 colon = system: COLO 205 colon
LOX IMVI melanoma = system: LOX IMVI melanoma
TK-10 renal = system: TK-10 renal
SW-620 colon = system: SW-620 colon
SK-OV-3 ovarian = system: SK-OV-3 ovarian
RXF-631 renal = system: RXF-631 renal
SNB-19 CNS = system: SNB-19 CNS
OVCAR-4 ovarian = system: OVCAR-4 ovarian
CAKI-1 renal = system: CAKI-1 renal
NCI-H460 lung = system: NCI-H460 lung
NCI-H23 lung = system: NCI-H23 lung
HL-60(TB) leukemia = system: HL-60(TB) leukemia
UACC-257 melanoma = system: UACC-257 melanoma
SK-MEL-2 melanoma = system: SK-MEL-2 melanoma
ACHN renal = system: ACHN renal
NCI-H522 lung = system: NCI-H522 lung
DMS 273 small cell lung = system: DMS 273 small cell lung
A549 NSCLC = system: A549 NSCLC
U251 CNS = system: U251 CNS
SNB-75 CNS = system: SNB-75 CNS
RPMI-8226 leukemia = system: RPMI-8226 leukemia
SK-MEL-28 melanoma = system: SK-MEL-28 melanoma
HOP-18 NSCLC = system: HOP-18 NSCLC
SR leukemia = system: SR leukemia
HCT-15 colon = system: HCT-15 colon
HT29 colon = system: HT29 colon
A498 renal = system: A498 renal
KM20L2 colon = system: KM20L2 colon
SK-MEL-5 melanoma = system: SK-MEL-5 melanoma
HCT-116 colon = system: HCT-116 colon
DMS 114 small cell lung = system: DMS 114 small cell lung
OVCAR-5 ovarian = system: OVCAR-5 ovarian
786-0 renal = system: 786-0 renal
DLD-1 colon = system: DLD-1 colon
KM12 colon = system: KM12 colon
SF-295 CNS = system: SF-295 CNS
RXF 393 renal = system: RXF 393 renal
LXFL 529 NSCLC = system: LXFL 529 NSCLC
SF-268 CNS = system: SF-268 CNS
HOP-92 NSCLC = system: HOP-92 NSCLC
SN12C renal = system: SN12C renal
MOLT-4 leukemia = system: MOLT-4 leukemia
DU-145 prostate = system: DU-145 prostate
HCC-2998 colon = system: HCC-2998 colon
OVCAR-3 ovarian = system: OVCAR-3 ovarian
PC-3 prostate = system: PC-3 prostate
MDA-N = system: MDA-N
M14 melanoma = system: M14 melanoma
MALME-3M melanoma = system: MALME-3M melanoma
SF-539 CNS = system: SF-539 CNS
XF 498 CNS = system: XF 498 CNS
BT-549 breast = system: BT-549 breast
NCI/ADR-RES ovarian = system: NCI/ADR-RES ovarian
MDA-MB-231 breast = system: MDA-MB-231 breast
OVCAR-8 ovarian = system: OVCAR-8 ovarian
HOP-62 NSCLC = system: HOP-62 NSCLC
MCF7 breast = system: MCF7 breast
SNB-78 CNS = system: SNB-78 CNS
K-562 leukemia = system: K-562 leukemia
IGROV1 ovarian = system: IGROV1 ovarian
MDA-MB-435 = system: MDA-MB-435
HS 578T breast = system: HS 578T breast
CCRF-CEM leukemia = system: CCRF-CEM leukemia
UACC-62 melanoma = system: UACC-62 melanoma
EKVX NSCLC = system: EKVX NSCLC
UO-31 renal = system: UO-31 renal
M19-MEL melanoma = system: M19-MEL melanoma
NCI-H226 lung = system: NCI-H226 lung

`CN1NC(c2ccc(Cl)cc2)=C(C#N)C(=O)CC1c1ccccc1` (configuration not stated) showed a TGI (COLO 205 colon) of over 100 µM, a TGI (LOX IMVI melanoma) of over 100 µM and a TGI (TK-10 renal) of over 100 µM. The TGI (SW-620 colon) was over 100 µM, the TGI (SK-OV-3 ovarian) was over 100 µM and the TGI (RXF-631 renal) was over 100 µM. The TGI (SNB-19 CNS) was over 100 µM, the TGI (OVCAR-4 ovarian) was over 100 µM and the TGI (CAKI-1 renal) was over 100 µM. It also gave a TGI (NCI-H460 lung) of over 100 µM, a TGI (NCI-H23 lung) of over 100 µM and a TGI (HL-60(TB) leukemia) of over 100 µM. The TGI (UACC-257 melanoma) was over 100 µM, the TGI (SK-MEL-2 melanoma) was over 100 µM and the TGI (ACHN renal) was over 100 µM. For the same compound, the TGI (NCI-H522 lung) was over 100 µM, the TGI (DMS 273 small cell lung) was over 100 µM and the TGI (A549 NSCLC) was over 100 µM. It also gave a TGI (U251 CNS) of over 100 µM, a TGI (SNB-75 CNS) of over 100 µM and a TGI (RPMI-8226 leukemia) of over 100 µM. The TGI (SK-MEL-28 melanoma) was over 100 µM, the TGI (HOP-18 NSCLC) was over 100 µM and the TGI (SR leukemia) was over 100 µM. It also gave a TGI (HCT-15 colon) of over 100 µM, a TGI (HT29 colon) of over 100 µM and a TGI (A498 renal) of over 100 µM. For the same compound, the TGI (KM20L2 colon) was over 100 µM, the TGI (SK-MEL-5 melanoma) was over 100 µM and the TGI (HCT-116 colon) was over 100 µM. The TGI (DMS 114 small cell lung) was over 100 µM, the TGI (OVCAR-5 ovarian) was over 100 µM and the TGI (786-0 renal) was over 100 µM. It also gave a TGI (DLD-1 colon) of over 100 µM, a TGI (KM12 colon) of over 100 µM and a TGI (SF-295 CNS) of over 100 µM. It also gave a TGI (RXF 393 renal) of over 100 µM, a TGI (LXFL 529 NSCLC) of over 100 µM and a TGI (SF-268 CNS) of over 100 µM. For the same compound, the TGI (HOP-92 NSCLC) was over 100 µM.

For `O=C1/C(=C/c2ccc(Cl)cc2)CCC1CNc1ccc(Cl)cc1` (configuration not stated), the TGI (COLO 205 colon) was 15.8 µM, the TGI (LOX IMVI melanoma) was 15.1 µM and the TGI (TK-10 renal) was 21.8 µM. For the same compound, the TGI (SW-620 colon) was 11.4 µM, the TGI (SN12C renal) was 29.4 µM and the TGI (SK-OV-3 ovarian) was over 31.4 µM. It also gave a TGI (MOLT-4 leukemia) of 27.5 µM, a TGI (SNB-19 CNS) of 35.7 µM and a TGI (DU-145 prostate) of 31.8 µM. The TGI (OVCAR-4 ovarian) was 54.5 µM, the TGI (HCC-2998 colon) was 21.6 µM and the TGI (OVCAR-3 ovarian) was 21.5 µM. The TGI (CAKI-1 renal) was 28.9 µM, the TGI (PC-3 prostate) was 45.6 µM and the TGI (NCI-H460 lung) was over 100 µM. The TGI (MDA-N) was 40.4 µM, the TGI (M14 melanoma) was 22.8 µM and the TGI (NCI-H23 lung) was 55.1 µM. It also gave a TGI (MALME-3M melanoma) of 44.8 µM, a TGI (SF-539 CNS) of 23.3 µM and a TGI (HL-60(TB) leukemia) of 22.1 µM. The TGI (UACC-257 melanoma) was 32.4 µM, the TGI (XF 498 CNS) was 29.5 µM and the TGI (SK-MEL-2 melanoma) was 58.5 µM. It also gave a TGI (ACHN renal) of 26.9 µM, a TGI (BT-549 breast) of 65.3 µM and a TGI (NCI/ADR-RES ovarian) of 67.1 µM. For the same compound, the TGI (NCI-H522 lung) was 3.89 µM, the TGI (DMS 273 small cell lung) was over 39.9 µM and the TGI (A549 NSCLC) was 38.1 µM. For the same compound, the TGI (U251 CNS) was 29.6 µM, the TGI (MDA-MB-231 breast) was 20.5 µM and the TGI (SNB-75 CNS) was 85.2 µM. The TGI (RPMI-8226 leukemia) was 6.68 µM, the TGI (SK-MEL-28 melanoma) was 35.9 µM and the TGI (HOP-18 NSCLC) was over 74.5 µM. It also gave a TGI (SR leukemia) of 43.8 µM, a TGI (OVCAR-8 ovarian) of 19.2 µM and a TGI (HCT-15 colon) of 15.3 µM. It also gave a TGI (HT29 colon) of 41.1 µM, a TGI (A498 renal) of 54.8 µM and a TGI (KM20L2 colon) of 12.6 µM. It also gave a TGI (SK-MEL-5 melanoma) of 22 µM, a TGI (HOP-62 NSCLC) of 56.1 µM and a TGI (HCT-116 colon) of 44.6 µM. For the same compound, the TGI (DMS 114 small cell lung) was over 48.3 µM, the TGI (MCF7 breast) was 10.8 µM and the TGI (OVCAR-5 ovarian) was over 77.3 µM. The TGI (SNB-78 CNS) was over 100 µM, the TGI (K-562 leukemia) was 21.3 µM and the TGI (IGROV1 ovarian) was 27.3 µM. The TGI (786-0 renal) was 6.73 µM, the TGI (MDA-MB-435) was 37.6 µM and the TGI (HS 578T breast) was 64.9 µM. It also gave a TGI (DLD-1 colon) of 10.7 µM, a TGI (CCRF-CEM leukemia) of 15.5 µM and a TGI (KM12 colon) of 11.7 µM. The TGI (SF-295 CNS) was over 100 µM, the TGI (UACC-62 melanoma) was 7.29 µM and the TGI (RXF 393 renal) was 26.4 µM. It also gave a TGI (EKVX NSCLC) of 38.4 µM, a TGI (UO-31 renal) of 30.1 µM and a TGI (LXFL 529 NSCLC) of 10.5 µM. The TGI (SF-268 CNS) was 40.6 µM, the TGI (HOP-92 NSCLC) was 50.4 µM and the TGI (M19-MEL melanoma) was over 50.4 µM. The TGI (NCI-H226 lung) was 98 µM.
